Measurements published in patent US20260042769A1, “TRIARYL AGONISTS OF ALPHA-2 ADRENERGIC RECEPTORS” (ALCEPTOR THERAPEUTICS, INC., priority 2023, published 2026).

Molecular target: T1, human ADRA2B receptor (Homo sapiens, UniProt P18089)
T1 construct: expressed in transfected cells
T1 sequence (P18089 1-450): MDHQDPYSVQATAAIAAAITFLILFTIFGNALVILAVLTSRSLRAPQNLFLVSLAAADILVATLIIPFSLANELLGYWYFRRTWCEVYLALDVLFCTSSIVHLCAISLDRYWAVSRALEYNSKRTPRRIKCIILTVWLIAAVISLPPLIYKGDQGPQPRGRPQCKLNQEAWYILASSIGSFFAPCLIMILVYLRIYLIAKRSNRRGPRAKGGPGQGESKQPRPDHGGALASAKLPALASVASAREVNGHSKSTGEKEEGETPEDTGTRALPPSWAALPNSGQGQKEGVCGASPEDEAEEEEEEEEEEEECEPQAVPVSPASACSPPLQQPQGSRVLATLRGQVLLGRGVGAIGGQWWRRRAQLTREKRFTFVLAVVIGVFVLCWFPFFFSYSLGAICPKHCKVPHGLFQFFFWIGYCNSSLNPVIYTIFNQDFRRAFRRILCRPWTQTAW
Test: GTPγS agonist assay, ADRA2B receptor
Assay type: biochemical
Conditions: read-out: GTPase - Human Alpha2B EC50
Experimental: GTP ? S Agonist Assays (ADRA2A, ADRA2B, and ADRA2C Receptors)
Membranes were prepared for GTP ? S binding assays from CHO-K1 cells stably expressing human ADRA2A, ADRA2B, or ADRA2C receptor. Briefly, cells were grown in 5-layer cell culture flasks. Cells were washed with 50 mL of PBS and then dissociated with 0.05% trypsin. Dissociated cells were then collected by centrifugation at 650×g for 8 min at 4° C. Pellets were washed again in PBS by centrifugation and resuspended in 30 mL of 20 mM HEPES, 10 mM EDTA, pH 7.4. After sitting on ice for 30 min, membranes were collected by centrifugation at 50000×g for 15 min at 4° C., resuspended in 30 mL of 20 mM HEPES, 0.1 mM EDTA, pH 7.4 and collected again by centrifugation. Pellets were then washed twice by centrifugation in 30 mL of 20 mM HEPES, pH 7.4, and stored at −80° C. until the day of the assay. On the day of the assay, pellets were thawed on ice and resuspended in 1 mL of 20 mM HEPES, pH 7.4, 10 mM MgCl2, 100 mM NaCl using dounce homogenization. Membrane protein concentration was determined by BCA protein assay (Promega, Madison, WI) according to Promega guidelines.
On the day of the assay, serial dilutions of test compounds were brought up in assay buffer (20 mM HEPES, 10 mM MgCl2, 200 mM NaCl) at 10× final assay concentration. 50 μL/well of membrane homogenates (containing 5 μg of membrane protein for ADRA2A, ADRA2B, or 7.5 μg for ADRA2C) were prepared in assay buffer supplemented with GDP at 2× final assay concentration (5 μM GDP) and dispensed into 96 well polypropylene, U-bottom Greiner plates. Then, 10 μL of compounds were added to assay plates and incubated for 10 min at room temperature. […] The binding reaction was incubated for 1 h at 37° C. Membranes in assay reactions were then transferred to GF/C filter plates (UniFilter, Perkin Elmer) and washed three times using a FilterMate Harvester (Perkin Elmer) with cold assay buffer containing no GDP. Filter plates were then dried at 40° C. overnight followed by the addition of 30 μL/well of Beta Plate Scintillation liquid. Plates were top and bottom sealed before being read on TopCount scintillation counter (Perkin Elmer, Waltham, MA).

| SMILES | EC50 [nM] |
| --- | --- |
| COc1cccc(CC(c2cnc[nH]2)c2cccc(OC)c2Cl)n1 (stereo not shown) [Compound 20, 2-[2-(2-chloro-3-methoxyphenyl)-2-(1H-imidazol-4-yl)ethyl]-6-methoxypyridine] | < 10 |
| COc1cccc(C[C@@H](c2cccc(Cl)c2)c2cnc[nH]2)n1 [Compound 21, 2-[(2S)-2-(3-chlorophenyl)-2-(1H-imidazol-4-yl)ethyl]-6-methoxypyridine] | 10 to 50 |
| COc1cccc(C[C@H](c2cccc(Cl)c2)c2cnc[nH]2)n1 [Compound 22, 2-[(2R)-2-(3-chlorophenyl)-2-(1H-imidazol-4-yl)ethyl]-6-methoxypyridine] | > 500 |
| COc1cccc(C[C@@H](c2cccc(C)c2)c2cnc[nH]2)n1 [Compound 23, 2-[(2S)-2-(1H-imidazol-4-yl)-2-(3-methylphenyl)ethyl]-6-methoxypyridine] | < 10 |
| COc1cccc(C[C@H](c2cccc(C)c2)c2cnc[nH]2)n1 [Compound 24, 2-[(2R)-2-(1H-imidazol-4-yl)-2-(3-methylphenyl)ethyl]-6-methoxypyridine] | > 500 |
| COc1cccc(C(Cc2cccc(OC)n2)c2cnc[nH]2)c1 (stereo not shown) [Compound 25, 2-[2-(1H-imidazol-4-yl)-2-(3-methoxyphenyl)ethyl]-6-methoxypyridine] | 50 to 500 |
| COc1cccc(C[C@H](c2cnc[nH]2)c2cccc(OC)c2C)n1 [Compound 26, 2-[(2S)-2-(1H-imidazol-4-yl)-2-(3-methoxy-2-methylphenyl)ethyl]-6-methoxypyridine] | 50 to 500 |
| COc1cccc(C[C@@H](c2cnc[nH]2)c2cccc(OC)c2C)n1 [Compound 27, 2-[(2R)-2-(1H-imidazol-4-yl)-2-(3-methoxy-2-methylphenyl)ethyl]-6-methoxypyridine] | < 10 |
| COc1cccc(CC(c2c[nH]cn2)c2cccc(C)c2Cl)n1 (stereo not shown) [Compound 28, 2-[2-(2-chloro-3-methylphenyl)-2-(1H-imidazol-4-yl)ethyl]-6-methoxypyridine] | < 10 |
| FC(F)(F)Oc1ccccc1[C@H](Cc1ccccn1)c1cnc[nH]1 [Compound 29, 2-[(2S)-2-(1H-imidazol-4-yl)-2-[2-(trifluoromethoxy)phenyl]ethyl] pyridine] | > 500 |
| FC(F)(F)Oc1ccccc1[C@@H](Cc1ccccn1)c1cnc[nH]1 [Compound 30, 2-[(2R)-2-(1H-imidazol-4-yl)-2-[2-(trifluoromethoxy)phenyl]ethyl] pyridine] | > 500 |
| COc1ccccc1[C@H](Cc1ccccn1)c1cnc[nH]1 [Compound 31, 2-[(2S)-2-(1H-imidazol-4-yl)-2-(2-methoxyphenyl)ethyl]pyridine] | > 500 |
| COc1ccccc1[C@@H](Cc1ccccn1)c1cnc[nH]1 [Compound 32, 2-[(2R)-2-(1H-imidazol-4-yl)-2-(2-methoxyphenyl)ethyl]pyridine] | > 500 |
| COc1c(C)cccc1[C@H](Cc1ccccn1)c1cnc[nH]1 [Compound 33, 2-[(2S)-2-(1H-imidazol-4-yl)-2-(2-methoxy-3-methylphenyl)ethyl]pyridine] | > 500 |
| COc1c(C)cccc1[C@@H](Cc1ccccn1)c1cnc[nH]1 [Compound 34, 2-[(2R)-2-(1H-imidazol-4-yl)-2-(2-methoxy-3-methylphenyl)ethyl]pyridine] | > 500 |
| FC(F)(F)Oc1cccc([C@H](Cc2ccccn2)c2cnc[nH]2)c1 [Compound 35, 2-[(2S)-2-(1H-imidazol-4-yl)-2-[3-(trifluoromethoxy)phenyl]ethyl] pyridine] | > 500 |
| FC(F)(F)Oc1cccc([C@@H](Cc2ccccn2)c2cnc[nH]2)c1 [Compound 36, 2-[(2R)-2-(1H-imidazol-4-yl)-2-[3-(trifluoromethoxy)phenyl]ethyl] pyridine] | 10 to 50 |
| FC(F)Oc1cccc([C@H](Cc2ccccn2)c2cnc[nH]2)c1 [Compound 37] | 10 to 50 |
| FC(F)Oc1cccc([C@@H](Cc2ccccn2)c2cnc[nH]2)c1 [Compound 38, 2-[(2R)-2-[3-(difluoromethoxy)phenyl]-2-(1H-imidazol-4-yl)ethyl]pyridine] | > 500 |

| SMILES | EC50 [nM] |
| --- | --- |
| Cc1cccc([C@H](Cc2ccccn2)c2cnc[nH]2)c1F [Compound 39, 2-[(2S)-2-(2-fluoro-3-methylphenyl)-2-(1H-imidazol-4-yl)ethyl] pyridine] | > 500 |
| Cc1cccc([C@@H](Cc2ccccn2)c2cnc[nH]2)c1F [Compound 40, 2-[(2R)-2-(2-fluoro-3-methylphenyl)-2-(1H-imidazol-4-yl)ethyl] pyridine] | 10 to 50 |
| c1ccc(C[C@H](c2cnc[nH]2)c2cccc3c2CCO3)nc1 [Compound 41, 2-[(2S)-2-(2,3-dihydro-1-benzofuran-4-yl)-2-(1H-imidazol-4-yl)ethyl]pyridine] | < 10 |
| c1ccc(C[C@@H](c2cnc[nH]2)c2cccc3c2CCO3)nc1 [Compound 42, 2-[(2R)-2-(2,3-dihydro-1-benzofuran-4-yl)-2-(1H-imidazol-4-yl)ethyl] pyridine] | 50 to 500 |
| c1ccc(C[C@H](c2cnc[nH]2)c2cccc3c2OCC3)nc1 [Compound 43, 2-[(2S)-2-(2,3-dihydro-1-benzofuran-7-yl)-2-(1H-imidazol-4-yl)ethyl] pyridine] | > 500 |
| c1ccc(C[C@@H](c2c[nH]cn2)c2cccc3c2OCC3)nc1 [Compound 44, 2-[(2R)-2-(2,3-dihydro-1-benzofuran-7-yl)-2-(1H-imidazol-4-yl)ethyl] pyridine] | 10 to 50 |
| c1ccc(C[C@H](c2cnc[nH]2)c2cccc3c2COC3)nc1 [Compound 45, 2-[(2S)-2-(1,3-dihydro-2-benzofuran-4-yl)-2-(1H-imidazol-4-yl)ethyl] pyridine] | > 500 |
| c1ccc(C[C@@H](c2cnc[nH]2)c2cccc3c2COC3)nc1 [Compound 46, 2-[(2R)-2-(1,3-dihydro-2-benzofuran-4-yl)-2-(1H-imidazol-4-yl)ethyl] pyridine] | > 500 |
| Cc1cccc([C@H](Cc2ccccn2)c2cnc[nH]2)c1Cl [Compound 47, 2-[(2S)-2-(2-chloro-3-methylphenyl)-2-(1H-imidazol-4-yl)ethyl] pyridine] | > 500 |
| Cc1cccc([C@@H](Cc2ccccn2)c2cnc[nH]2)c1Cl [Compound 48, 2-[(2R)-2-(2-chloro-3-methylphenyl)-2-(1H-imidazol-4-yl)ethyl]pyridine] | 10 to 50 |
| Cc1c(Cl)cccc1C(Cc1ccccn1)c1cnc[nH]1 (stereo not shown) [Compound 49, 2-[2-(3-chloro-2-methylphenyl)-2-(1H-imidazol-4-yl)ethyl] pyridine] | 50 to 500 |
| Cc1cccc(C(Cc2ccccn2)c2cnc[nH]2)c1C (stereo not shown) [Compound 50, 2-[2-(2,3-dimethylphenyl)-2-(1H-imidazol-5-yl)ethyl] pyridine] | > 500 |
| Cc1cccc([C@H](Cc2ccccn2)c2cnc[nH]2)c1C [Compound 51, 2-[(2S)-2-(2,3-dimethylphenyl)-2-(1H-imidazol-4-yl)ethyl] pyridine] | 50 to 500 |
| Cc1cccc([C@@H](Cc2ccccn2)c2cnc[nH]2)c1C [Compound 52, 2-[(2R)-2-(2,3-dimethylphenyl)-2-(1H-imidazol-4-yl)ethyl] pyridine] | 10 to 50 |
| COc1nccc(C[C@H](c2c[nH]cn2)c2cccc(C)c2C)n1 [Compound 53, 4-[(2S)-2-(2,3-dimethylphenyl)-2-(1H-imidazol-4-yl)ethyl]-2-methoxy-pyrimidine] | < 10 |
| COc1nccc(C[C@@H](c2cnc[nH]2)c2cccc(C)c2C)n1 [Compound 54, 4-[(2R)-2-(2,3-dimethylphenyl)-2-(1H-imidazol-4-yl)ethyl]-2-methoxy-pyrimidine] | 50 to 500 |
| Cc1cccc([C@H](Cc2cccnn2)c2cnc[nH]2)c1C [Compound 55, 3-[(2S)-2-(2,3-dimethylphenyl)-2-(1H-imidazol-4-yl)ethyl] pyridazine] | 10 to 50 |
| Cc1cccc([C@@H](Cc2cccnn2)c2cnc[nH]2)c1C [Compound 56, 3-[(2R)-2-(2,3-dimethylphenyl)-2-(1H-imidazol-4-yl)ethyl] pyridazine] | > 500 |
